Columns and labels:
[1] = target: T1, PRMT1 (Rattus norvegicus, UniProt Q63009); assay: Radioactive methyltransferase assay, PRMT1; assay type: biochemical; conditions: for IC50: IC50, His6x-PRMT1 0.05 μM, 2 μM H4(1-20), 5 μM [14C]-SAM, 30°C
[2] = target: T2, PRMT4/CARM1 (Mus musculus, UniProt Q9WVG6); assay: Radioactive methyltransferase assay, CARM1; assay type: biochemical
T2 sequence (Q9WVG6 1-608): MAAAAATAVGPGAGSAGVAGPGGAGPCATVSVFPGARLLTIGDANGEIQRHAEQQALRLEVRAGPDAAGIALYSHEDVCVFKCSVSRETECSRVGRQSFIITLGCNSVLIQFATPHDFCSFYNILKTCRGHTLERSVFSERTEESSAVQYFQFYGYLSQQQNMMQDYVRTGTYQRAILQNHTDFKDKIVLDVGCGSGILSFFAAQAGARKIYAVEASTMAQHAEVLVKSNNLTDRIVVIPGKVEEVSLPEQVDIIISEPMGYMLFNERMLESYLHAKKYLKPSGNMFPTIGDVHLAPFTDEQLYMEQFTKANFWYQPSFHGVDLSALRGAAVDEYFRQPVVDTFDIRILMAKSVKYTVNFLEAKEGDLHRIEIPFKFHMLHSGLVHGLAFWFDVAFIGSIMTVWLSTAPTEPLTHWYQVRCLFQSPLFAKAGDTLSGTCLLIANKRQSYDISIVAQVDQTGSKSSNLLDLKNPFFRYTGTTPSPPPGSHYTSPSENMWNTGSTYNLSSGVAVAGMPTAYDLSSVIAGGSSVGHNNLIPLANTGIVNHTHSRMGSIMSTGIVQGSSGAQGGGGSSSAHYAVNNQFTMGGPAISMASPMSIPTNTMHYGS

[3] = target: T1, PRMT1; assay: Dialysis experiment and time-dependent inhibition; assay type: biochemical; conditions: dialysis and time-dependent inhibition (0, 1.5, 2.5, 4.0 μM)
[4] = target: PRMT1 Y152A (Rattus norvegicus, UniProt Q63009, Y152A); assay: Radioactive methyltransferase assay, PRMT1 mutant Y152A; assay type: biochemical; conditions: 4 μM inhibitor, 2 μM H4-20, 5 μM [14C]AdoMet
[5] = test system: HeLa cells; assay: Cell cycle assay by flow cytometry; assay type: cell-based; conditions: 48 h of treatment at 2.5 and 5 μM (data not shown)

T1 sequence (Q63009 whole entry): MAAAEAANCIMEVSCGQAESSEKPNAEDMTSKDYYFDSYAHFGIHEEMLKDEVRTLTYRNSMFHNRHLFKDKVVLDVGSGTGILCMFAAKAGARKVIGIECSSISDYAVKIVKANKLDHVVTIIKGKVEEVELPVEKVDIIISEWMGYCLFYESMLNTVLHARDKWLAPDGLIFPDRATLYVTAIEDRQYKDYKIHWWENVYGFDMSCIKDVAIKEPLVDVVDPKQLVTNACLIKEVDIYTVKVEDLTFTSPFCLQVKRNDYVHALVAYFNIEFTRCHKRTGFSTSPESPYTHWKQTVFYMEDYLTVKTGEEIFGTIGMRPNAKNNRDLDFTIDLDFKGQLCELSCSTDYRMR
Chain of PRMT1 Y152A (Q63009 whole entry Y152A): as the sequence (Q63009 whole entry) above, with Y152A counted along it

Row | SMILES | IC50 [1] [µM] | further results
1 | CCn1/c(=C\C=C\C2=[N+](CC)c3cccc4cccc2c34)c2cccc3cccc1c32.[I-] [compound 11, 1-ethyl-2-[3-(1-ethylbenz[c,d]indol-2(1H)-ylidene)-1-propen-1-yl]-iodide] | – | kinetic pattern of inhibition ([1]; steady-state kinetics, with regard to both H4 and AdoMet substrates): noncompetitive inhibitor; IC50 [2]: ~100 µM; reversible vs irreversible inhibition [3]: reversible; inhibition of Y152A PRMT1 compared with wt-PRMT1 [4]: same potency as is for wt-PRMT1; Sub-G1 population, indicative of apoptosis [5]: appearance of a hypodiploid peak (Sub-G1) was observed
2 | CCN1/C(=C\C=C\C2=[N+](CC)c3ccccc3C2(C)C)C(C)(C)c2ccccc21 [compound 22] | 284 ± 3.5 | –
3 | CC1(C)C(/C=C/C=C2/N(CCCc3ccccc3)c3ccc4ccccc4c3C2(C)C)=[N+](CCCc2ccccc2)c2ccc3ccccc3c21 [compound 27] | 14.3 ± 0.2 | –
4 | CC1(C)C(/C=C/C=C2/N(CCC[N+](C)(C)C)c3ccc(Br)cc3C2(C)C)=[N+](CCC[N+](C)(C)C)c2ccc(Br)cc21 [compound 29] | 292 ± 40.1 | –

Further molecules by falling IC50 [1], results first:

Row | IC50 [1] [µM] | SMILES | further results
5 | 20.3 ± 0.2 | CCN1/C(=C/C=C/C2=[N+](CC)c3ccc4ccccc4c3C2(C)C)C(C)(C)c2c1ccc1ccccc21 [compound 25] | –
6 | 18 ± 0.5 | CCCCN1/C(=C\C=C\C2=[N+](CCCC)c3ccc4ccccc4c3C2(C)C)C(C)(C)c2c1ccc1ccccc21 [compound 26] | –
7 | 15.5 ± 0.2 | C(/C=C/C1=[N+](CCCc2ccccc2)c2cccc3cccc1c23)=c1\c2cccc3cccc(c32)n1CCCc1ccccc1 [compound 13, 1-phenylpropyl-2-[3-(1-phenylpropylbenz[c,d]indol-2(1H)-ylidene)-1-propen-1-yl]iodide] | –
8 | 12 ± 0.5 | CCCCn1/c(=C\C=C\C2=[N+](CCCC)c3cccc4cccc2c34)c2cccc3cccc1c32 [compound 12, 1-butyl-2-[3-(1-butyllbenz[c,d]indol-2(1H)-ylidene)-1-propen-1-yl]-iodide] | –

Reference: PMC4151304 (European journal of medicinal chemistry, 2012)
